Source: patent publication US20250020651A1, “PERSONALIZED MODULATION THERAPY FOR CANCER” (Faeth Therapeutics, Inc., priority 2021, published 2025)

Assays:
[1] = tested on: Pancreatic cancer cells such as BxPC3, CFPAC1, PANC1, DANG, and PATU8902; experiment: Crystal Violet cell growth with chemotherapy drugs in complete or P/S/G free media; type: cell-based, Human; conditions: P/S/G free media vs complete media, +10% dialyzed FBS, 3 days, Crystal Violet staining
Description: A study was performed to evaluate the efficacy of a disclosed composition in the treatment of cancer when combined with a chemotherapy drug. Pancreatic cancer cells such as BxPC3, CFPAC1, PANC1, DANG, and PATU8902 were treated with either Gemcitabine (GEM), Paclitaxel (PAC), GEM+PAC, and FOLFIRINOX (which is a combination of 5FU, Oxaliplatin, Folinic acid, and Irinotecan), in combination with complete media, or with media free of the amino acids […]), as indicated in FIG. 4 rows A-D. Cells were seeded in 96-well plates and in complete media+10% FBS. 24 hours later, cells were washed with PBS followed by addition of the indicated drugs with either complete or P/S/G free media+10% dialyzed FBS. Cells were grown for 3 more days, and cell growth was measured using Crystal Violet staining. […] Error bars denote the standard deviation.

[2] = tested on: Pancreatic cancer cell lines such as BxPC3, CFPAC1, PANC1, DANG and PATU8902; experiment: Crystal Violet cell growth with serabelisib in complete or P/S/G free media; type: cell-based, Human; conditions: P/S/G free media vs complete media, 3 days, Crystal Violet staining
Description: A study was performed to evaluate the efficacy of disclosed compositions in the treatment of cancer when combined with a targeted anti-cancer therapy. Pancreatic cancer cell lines such as BxPC3, CFPAC1, PANC1, DANG and PATU8902 were treated with an alpha specific PI3K inhibitor, serabelisib. Cells were seeded in 96-well plates and in complete media+10% FBS. 24 hours later, cells were washed with PBS followed by addition of serabelisib with either complete or P/S/G free media+10% dialysed FBS (FIG. 6A-6F). Cells were grown for 3 more days and cell growth was measured using Crystal Violet staining. Error bars denote standard deviation. […] P/S/G starvation pushes the response curve down and to the left meaning lower concentrations of drug achieve the same cell kill.

Structure (SMILES)	effect of restriction of proline, serine, and glycine on cell growth response to the drug [1]	cell kill by serabelisib under P/S/G starvation [2]
Nc1ccn([C@@H]2O[C@H](CO)[C@@H](O)C2(F)F)c(=O)n1 [gemcitabine, Gemcitabine]	sensitized cancer cells	–
CC(=O)O[C@H]1C(=O)[C@@]2(C)[C@H]([C@H](OC(=O)c3ccccc3)[C@]3(O)C[C@H](OC(=O)[C@H](O)[C@@H](NC(=O)c4ccccc4)c4ccccc4)C(C)=C1C3(C)C)[C@]1(OC(C)=O)CO[C@@H]1C[C@@H]2O [paclitaxel, Paclitaxel]	sensitized cancer cells	–
Nc1nc2cc(-c3ccc4ncc(C(=O)N5CCOCC5)n4c3)ccc2o1 [serabelisib]	–	improved cell kill at lower drug concentrations
